Laboratory results from US8372967B2, “Compounds and methods for modulating expression of GCCR” (Isis Pharmaceuticals, Inc., priority 2006, dated 2013).
Strand notation (5' to 3'): a small letter for the sugar, then the base; units joined by * are phosphorothioate-linked, units joined directly phosphodiester-linked; [ ] holds rarer units or linkages, { } end groups; capitals alone tell only the bases. e = 2'-O-(2-methoxyethyl) (MOE); [5mC] = 5-methylcytosine; d = 2'-deoxy (DNA)

What was measured:
DGAT2 mRNA = assay: Antisense inhibition of DGAT2 in A10 cells, 75 nM (Table 81); format: cell-based, rat; settings: approximately 24 hours
Protocol: Short antisense compounds targeted to a DGAT2 nucleic acid were tested for their effects on DGAT2 mRNA in vitro. Cultured A10 cells in a 96-well plate were treated with 75 nM of short antisense compound. After a treatment period of approximately 24 hours, RNA was isolated from the cells and DGAT2 mRNA levels were measured by quantitative real-time PCR, as described herein. DGAT2 mRNA levels were adjusted according to total RNA content as measured by RIBOGREEN®. Results are presented as percent inhibition of DGAT2, relative to untreated control cells in Table 81.

rat DGAT2 mRNA = assay: Dose-dependent inhibition of DGAT2 in A10 cells (Tables 82, 83); format: cell-based
Protocol: Additional short antisense compounds targeted to DGAT2 mRNA were tested in vitro in a dose-response experiment. A10 cells were prepared as described above and treated with 6.25, 12.5, 25.0, 50.0, 100.0, and 200.0 nM short antisense compounds to determine if DGAT2 inhibition occurs in a dose-dependent manner. […] Results are presented as percent inhibition, relative to untreated control cells.
Additional short antisense compounds targeted to DGAT2 mRNA were tested in vitro. A10 cells were prepared as described above and treated with 0.62, 1.85, 5.56, 16.67, 50.0, and 150.0 nM short antisense compounds to determine if DGAT2 inhibition occurs in a dose-dependent manner. DGAT2 mRNA was measured using quantitative real-time PCR, as described herein. […] Results are presented as percent inhibition of rat DGAT2, relative to untreated control cells.

Row | Substance | % Control (DGAT2 mRNA) | percent inhibition of rat DGAT2 (rat DGAT2 mRNA; 0.62 nM (Table 83)) | percent inhibition of rat DGAT2 (rat DGAT2 mRNA; 1.85 nM (Table 83)) | percent inhibition of rat DGAT2 (rat DGAT2 mRNA; 5.56 nM (Table 83)) | percent inhibition of rat DGAT2 (rat DGAT2 mRNA; 16.67 nM (Table 83)) | percent inhibition of rat DGAT2 (rat DGAT2 mRNA; 50 nM (Table 83)) | percent inhibition of rat DGAT2 (rat DGAT2 mRNA; 150 nM (Table 83)) | percent inhibition of DGAT2 (rat DGAT2 mRNA; 6.25 nM (Table 82)) | percent inhibition of DGAT2 (rat DGAT2 mRNA; 12.5 nM (Table 82)) | percent inhibition of DGAT2 (rat DGAT2 mRNA; 50.0 nM (Table 82)) | percent inhibition of DGAT2 (rat DGAT2 mRNA; 100.0 nM (Table 82)) | percent inhibition of DGAT2 (rat DGAT2 mRNA; 200.0 nM (Table 82))
1 | 372491 (antisense eA*e[5mC]*eA*dT*dG*dA*dG*dG*dA*dT*dG*dA*d[5mC]*eA*e[5mC]*eT) [compound 372491] | 80 % Control |  |  |  |  |  |  |  |  |  |  | 
2 | 372500 (antisense eG*eT*eG*dT*dG*dT*d[5mC]*dT*dT*d[5mC]*dA*d[5mC]*d[5mC]*eA*eG*e[5mC]) [compound 372500] | 16 % Control | 0% | 0% | 0% | 18% | 64% | 88% |  |  |  |  | 
3 | 372501 (antisense eT*eT*eG*dT*dG*dT*dG*dT*d[5mC]*dT*dT*d[5mC]*dA*e[5mC]*e[5mC]*eA) [compound 372501] | 28 % Control | 1% | 5% | 10% | 11% | 25% | 68% |  |  |  |  | 
4 | 372503 (antisense eG*e[5mC]*eA*dG*dG*dT*dT*dG*dT*dG*dT*dG*dT*e[5mC]*eT*eT) [compound 372503] | 35 % Control | 7% | 10% | 4% | 25% | 54% | 80% |  |  |  |  | 
5 | 372508 (antisense eA*eG*eT*dT*d[5mC]*d[5mC]*dT*dG*dG*dT*dG*dG*dT*e[5mC]*eA*eG) [compound 372508] | 35 % Control | 0% | 0% | 6% | 14% | 39% | 71% |  |  |  |  | 
6 | 372516 (antisense eT*eA*e[5mC]*dA*dG*dA*dA*dG*dG*d[5mC]*dA*d[5mC]*d[5mC]*e[5mC]*eA*eG) [compound 372516] | 27 % Control | 1% | 10% | 0% | 4% | 35% | 81% |  |  |  |  | 
7 | 372524 (antisense eG*e[5mC]*e[5mC]*dA*dG*dG*d[5mC]*dA*dT*dG*dG*dA*dG*e[5mC]*eT*e[5mC]) [compound 372524] | 21 % Control | 7% | 0% | 5% | 30% | 68% | 91% |  |  |  |  | 
8 | 372530 (antisense eT*e[5mC]*eG*dG*d[5mC]*d[5mC]*d[5mC]*d[5mC]*dA*dG*dG*dA*dG*e[5mC]*e[5mC]*e[5mC]) [compound 372530] | 35 % Control | 0% | 2% | 0% | 10% | 38% | 78% |  |  |  |  | 
9 | 372546 (antisense eT*eT*eG*dG*dT*d[5mC]*dT*dT*dG*dT*dG*dA*dT*eT*eG*eT) [compound 372546] | 34 % Control | 0% | 2% | 11% | 4% | 48% | 78% |  |  |  |  | 
10 | 372563 (antisense eA*eG*d[5mC]*d[5mC]*dA*dG*dG*dT*dG*dA*d[5mC]*dA*eG*eA) [compound 372563] | 48 % Control | 0% | 0% | 0% | 1% | 4% | 46% |  |  |  |  | 
11 | 372569 (antisense e[5mC]*eA*dT*dG*dA*dG*dG*dA*dT*dG*dA*d[5mC]*eA*e[5mC]) [compound 372569] | 104 % Control |  |  |  |  |  |  |  |  |  |  | 
12 | 372578 (antisense eT*eG*dT*dG*dT*d[5mC]*dT*dT*d[5mC]*dA*d[5mC]*d[5mC]*eA*eG) [compound 372578] | 59 % Control | 0% | 0% | 0% | 2% | 7% | 42% |  |  |  |  | 
13 | 372580 (antisense eG*eG*dT*dT*dG*dT*dG*dT*dG*dT*d[5mC]*dT*eT*e[5mC]) [compound 372580] | 48 % Control | 0% | 5% | 5% | 3% | 16% | 42% |  |  |  |  | 
14 | 372586 (antisense eG*eT*dT*d[5mC]*d[5mC]*dT*dG*dG*dT*dG*dG*dT*e[5mC]*eA) [compound 372586] | 40 % Control | 0% | 0% | 0% | 0% | 7% | 55% | 19% | 0% | 22% | 45% | 77%
15 | 372594 (antisense eA*e[5mC]*dA*dG*dA*dA*dG*dG*d[5mC]*dA*d[5mC]*d[5mC]*e[5mC]*eA) [compound 372594] | 77 % Control | 0% | 0% | 0% | 0% | 2% | 15% |  |  |  |  | 
16 | 372602 (antisense e[5mC]*e[5mC]*dA*dG*dG*d[5mC]*dA*dT*dG*dG*dA*dG*e[5mC]*eT) [compound 372602] | 39 % Control | 0% | 0% | 10% | 0% | 19% | 51% | 0% | 0% | 18% | 47% | 76%
17 | 372618 (antisense eG*eT*dG*dG*dT*dA*d[5mC]*dA*dG*dG*dT*d[5mC]*eG*eA) [compound 372618] | 29 % Control | 0% | 0% | 0% | 0% | 30% | 60% | 0% | 5% | 27% | 65% | 80%
